# According to ChEMBL document CHEMBL3507680, “University of Dundee, Gates Library screen for HepG2 cell viability”:
# Assay: Human HepG2 cell viability assay in 384 well format
# Type: toxicity, cell-based
# Parameters: dose 125 nL, time 70.5 hour; cytotoxicity at 70.5 h: concentration not given beside the values
# Settings: HepG2 cells, read-out: Inhibition
row,SMILES,cytotoxicity at 70.5 h
1,Cn1c(NCC(O)c2ccc(F)cc2)c(C#N)c(=O)n(C)c1=O (centres undefined),-5.75%
2,Cc1cccc(C(CNC(=O)NCc2cc[nH]n2)N2CCOCC2)c1 (centres undefined),-14.8%
3,CC(C)CN1C[C@@H]2CN(C(=O)c3cccn3C)C[C@@H]2C1=O,-7.2%
4,CCNS(=O)(=O)c1cccc(CSC)c1,5.32%
5,Cc1cc(-n2cncn2)ccc1C(=O)Nc1ccc(N2CCCC2)cn1,-1.24%
6,Cc1ccc2[nH]c(C3CCN(CC(N)=O)CC3)nc2c1,9.74%
7,Cc1cc(C)n(CC2CN(c3nnc(C)c(C)c3C#N)CCO2)n1 (centres undefined),-3.24%
8,CCn1nc(C)cc1C(=O)N1C[C@@H]2C[C@@H](c3nnc(C)[nH]3)O[C@@H]2C1,-12.7%
9,COCCN1C[C@@H]2[C@@H](OC)CCN(Cc3ccco3)[C@@H]2C1,-3.76%
10,CC(=O)NCCNc1nc(C2CCCC2)nc2c1cnn2C,-5.79%
11,COc1ccccc1C(=O)N1CCN(CCc2scnc2C)CC1,-7.23%
12,CC(C)c1nc(CN(C)C2CCCN(c3cccnn3)C2)no1 (centres undefined),-5.62%
13,COCCC(=O)N[C@H]1CN(c2nc(C)c3c(n2)CCCC3)C[C@@H]1C1CC1,-9.64%
14,O=S(=O)(C1CC1)N1CCOC2(CCCN(c3cccc(F)c3)C2)C1 (centres undefined),-3.57%
15,CC(C)S(=O)(=O)NCC1CCCN(C(=O)c2ccc(Cl)cc2)C1 (centres undefined),6.86%
16,CCc1cnc(NC(=O)NC2CCN(C)CC2)s1,10.3%
17,O=S(=O)(c1cccc(F)c1)N1CCCCC1c1ccn[nH]1 (centres undefined),-7.34%
18,CC(C)S(=O)(=O)N1C[C@H]2OC(=O)N(CCc3cccc(Cl)c3)[C@H]2C1,-4.98%
19,Cc1cc(N2CCC(c3nnc(CN(C)C)n3C3CC3)CC2)ccn1,18.3%
20,CCc1nc(C(=O)N2CCN(C)CC2C)nn1-c1ccccc1Cl (centres undefined),23.5%
21,c1cnn(CC2CCCN2c2ncnc3c2CCC3)c1 (centres undefined),4.07%
22,CC(C)(C)n1ncc2c1NC(=O)CC2c1ccsc1 (centres undefined),-5.9%
23,Cc1ccccc1C(=O)N1CCO[C@H]2[C@H](OCCN(C)C)CC[C@@H]21,-2.16%

row,SMILES,cytotoxicity at 70.5 h
1,CCOc1ncccc1C(=O)N1CCCC1Cn1cc(C)cn1 (centres undefined),-5.13%
2,Cc1cc(CNC(=O)CCc2c(C)nc3cc(O)nn3c2C)no1,-6.68%
3,CCC(=O)N1CCc2[nH]cnc2C12CCN(C(=O)CCS(C)(=O)=O)CC2,-1.4%
4,CCNc1cc2c(nn1)CCN(C(=O)Cc1noc3ccccc13)C2,-12.5%
5,COCCCS(=O)(=O)N1CCN(Cc2cccn2C)CC1,43.4%
6,COc1ccc(CNC(=O)N2CCN(CC(O)C3CC3)CC2)cc1 (centres undefined),-3%
7,CC(C)N1CC[C@@](C)(O)[C@H](n2ccc(=O)[nH]c2=O)C1,-7.14%
8,Cn1ccnc1CCNS(=O)(=O)c1cccc(Br)c1,-2.62%
9,CC(C)C(=O)NS(=O)(=O)c1ccc(C#N)cc1C(F)(F)F,-2.54%
10,COCCC(=O)N1CCCC1c1csc(Nc2ncccn2)n1 (centres undefined),-7.18%
11,COCC1CN(c2ncccn2)Cc2cnn(CC3CC3)c21 (centres undefined),-6.23%
12,COCCNC(=O)[C@@H]1CN(c2ncccn2)C[C@H]2OCC[C@H]21,-2.54%
13,CC(C)(C)c1nc(NS(=O)(=O)c2ccccc2F)no1,-18.1%
14,CCSCCNc1nc2c(s1)c(C)nn2C,-14.5%
15,COC(=O)c1cccc(NCC(=O)NC(N)=O)c1,12.1%
16,COC(=O)c1ccc(C(=O)NCC2(O)CCOCC2)cc1,33.7%
17,Cn1cccc1C(=O)N1CCn2cc(CN3CCCC3)nc2C1,-1.14%
18,Cc1csc2cc(C(=O)NC3CCCC3)cnc12,3.45%
19,CC(=O)NCCCSC1CCCN(c2ccccc2F)C1=O (centres undefined),-6.35%
20,COC(=O)c1cccn1C1CCN(C(=O)c2cc(F)ccc2C)CC1,-16.9%
21,OCCOc1ccc(NCc2cccnc2)cn1,24.6%
22,COc1ccc(-c2cc(C3CC3)c(C#N)c(N)n2)cc1F,11.2%
23,CCOCC(O)CN1CCN(C(=O)Cc2ccc3c(c2)CCC3)CC1 (centres undefined),53.8%

row,SMILES,cytotoxicity at 70.5 h
1,Cn1cc(CC2CC(=O)N(Cc3ccc(OC(F)F)cc3)C2=O)cn1 (centres undefined),3.06%
2,CC(=O)N1CCC2(CC1)CN(C(C)C)c1ccc(F)cc12,-1.77%
3,COCCN(C)C(=O)c1nc2c(s1)CCCN2S(C)(=O)=O,3.66%
4,COC(=O)C1CN(CC(=O)Nc2cc(F)ccc2F)c2ccccc21 (centres undefined),-7.21%
5,NCC1CN(c2nc(-c3cccnc3)nc3c2CCNCC3)CCO1 (centres undefined),26.4%
6,O=C(c1cc2c([nH]c1=O)CCC2)N1CCCC1c1cccnc1 (centres undefined),14.6%
7,Cc1noc(C)c1CN1CCN(CCN(C)C)c2ncccc2C1,-2.96%
8,Cc1[nH]c2ccc(C#N)cc2c1CCNc1ncnc2c1CCNCC2,-1.54%
9,Cc1c(-c2ccncc2)n[nH]c1NC(=O)CCOC(C)C,-4.44%
10,O=C(NCc1ccc(Cl)cc1)[C@@H]1Cc2[nH]cnc2CN1CC1CC1,-6.64%
11,CNc1ncccc1C(=O)N1CCCC2(C1)C(=O)N(C)c1ccccc12 (centres undefined),-7.64%
12,CC(C(=O)NCc1ccnc(OC2CCCC2)c1)n1cncn1 (centres undefined),-3.9%
13,CC(NC1CCN(CCc2ccncc2)CC1)c1cnn(C(C)C)c1 (centres undefined),-18%
14,O=S(=O)(Cc1cccc2cccnc12)NC(CO)c1ccco1 (centres undefined),-9.35%
15,CN(Cc1ccccn1)C(=O)c1cc(CN2CCC(O)CC2)on1,-16.8%
16,CN(C(=O)C1CCN(Cc2cnc3ccccn23)CC1)c1ccccc1,-7.69%
17,CC(=O)N(Cc1noc(C)n1)C1CCN(Cc2ccon2)C1 (centres undefined),37.1%
18,Cc1occc1C(=O)N1CCc2c(COCC3CC3)cncc2C1,-2.87%
19,CNC(=O)CN1CCO[C@H]2CN(CC3CCOCC3)C[C@H]21,-2.33%
20,Cc1cn2c(n1)CCC(NC(=O)CCn1cncn1)C2 (centres undefined),-8.43%
21,O=C1CC[C@]2(CC[C@@H](NC3CCOC3)CC2)N1Cc1ccccc1 (some centres undefined),-1.97%
22,O=C(c1cccc(F)c1)N1C[C@H]2CN(Cc3ccccn3)C[C@H]2C1,-16%
23,CCC(CC)(CCCNC(=O)c1c(C)noc1C)C1OCCO1,-5.03%

row,SMILES,cytotoxicity at 70.5 h
1,CC(=O)c1cccc(S(=O)(=O)N2CSCC2C(=O)NCC(F)(F)F)c1 (centres undefined),5.48%
2,CC(C)n1nc(Cn2cccn2)c2c1CN(C1CCOCC1)C2,-4.7%
3,CC(C)c1nsc(N2CCSCC2)n1,-22.2%
4,c1csc(CN2CCC3(CC2)CCN(CC2CC2)CC3)n1,14.9%
5,O=C(NC1CCNC1)C1(N2CCCCC2)Cc2ccccc2C1 (centres undefined),1.09%
6,O=C(O)C1(Cc2ccccc2Cl)CCN(c2ncccc2F)CC1,-6.72%
7,CC(C)c1cnc(CN2CCCS2(=O)=O)o1,-1.78%
8,COc1cc(F)c(NC(=O)N(C)CCNC(=O)N(C)C)cc1F,-0.221%
9,Cc1nc(CCN2CCCCC2)n(-c2ccc(F)cc2)n1,16.5%
10,CC(C)(CO)Nc1ccc(-c2nc(-c3ccccc3F)no2)cn1,-5.95%
11,Cc1ccc(C(O)CNC(=O)NCc2csc(C)n2)cc1 (centres undefined),-2.4%
12,Cc1cc2c(=O)n3c(nc2s1)CCN(C(=O)c1scnc1C)CC3,-12.5%
13,Cc1ccc(CSCCn2nc3ccccn3c2=O)cc1,-1.35%
14,NC1CCc2nc(-c3ccncc3)nc(Nc3cccc(F)c3)c2C1 (centres undefined),9.56%
15,CCc1nc(C2CCCN2CCc2cccs2)no1 (centres undefined),17.3%
16,CN(Cc1cc2n(n1)CCNC2)Cc1n[nH]c2c1CCC2,-10.9%
17,COc1c(CNCCNC(=O)c2cccc(C)c2)c(C)nn1C,3.54%
18,COc1ccc(-n2nnc(C(=O)NCC3CCCCC3)n2)cc1,-12.2%
19,COCCN1C[C@@H]2CN(c3ncc(F)cn3)C[C@@H]2C1=O,-47.2%
20,O=C(O)[C@@H]1CN(C(=O)CCCc2ccc(F)cc2)C[C@H]1C1CC1,-5.36%
21,CCCn1cc(-c2cc(-c3c[nH]cn3)c(C#N)c(N)n2)c(C)n1,3.58%
22,CCc1cnc(CN2CCC(N(Cc3noc(CC)n3)C(C)=O)C2)o1 (centres undefined),-9.22%
23,O=C(NCc1ccnc(C2CCCOC2)n1)c1cccs1 (centres undefined),14.1%

row,SMILES,cytotoxicity at 70.5 h
1,CC(C)c1cc(C(=O)N2CCCC(Cn3cc(CO)nn3)C2)on1 (centres undefined),-2.32%
2,CSc1ccc(C(=O)N2CCOCC2c2c(C)n[nH]c2C)o1 (centres undefined),18.3%
3,CN(C)c1ccc(CC(=O)N[C@@H]2CCNC[C@H]2O)cc1,-3.58%
4,COCc1nc(C(=O)NS(=O)(=O)c2ccc(Cl)cc2F)cs1,-3.46%
5,CN(C(=O)Cc1ccc(F)cc1)C1CCN(c2ccccn2)CC1,-1.36%
6,O=C(N[C@H]1CCCC[C@@H]1O)c1ccc(-c2nc3ccccc3[nH]2)cc1,-1.28%
7,CCc1nnc2n1CCN(CC(=O)N1CCc3ccccc3C1)C2,28.5%
8,O=C(CCNc1ncccn1)NCc1csc(Br)c1,11.5%
9,C(=C\c1ccc(CN2CCCC2)cn1)/c1ccccc1,6.88%
10,Cc1cccc(-c2nc(C)nn2CC(=O)NC2CCCC2)c1,3.32%
11,CC(C(=O)N(C)C1CCCCC1)S(=O)(=O)Cc1csc(-c2cccs2)n1 (centres undefined),-7.18%
12,CN1CCC(c2cccc(C(=O)N(C)C)n2)CC1,-7.65%
13,CCNc1ccnc(NC2CCN(S(C)(=O)=O)CC2)n1,-14.6%
14,Cc1c(C)n(Cc2ccccn2)c2nc3c(c(N)c12)CCCC3,-14.4%
15,c1ccc(NCc2cnc3n2CCN(C2CCOC2)CC3)nc1 (centres undefined),15.7%
16,CCCc1ncc(CNC2(c3ccc(Cl)cc3)CCC2)cn1,-4.55%
17,COCC1CN(Cc2ccc3c(c2)OCO3)Cc2ncn(C)c21 (centres undefined),-12.8%
18,Cc1ccc(C)c(N2CCN(CC3(O)CCNC3)CC2)c1 (centres undefined),-0.198%
19,O=S(=O)(c1cccc(Cl)c1)N1CCCC(Cn2cncn2)C1 (centres undefined),-4.36%
20,CC(C)N1CCc2ncn(C(C)C)c2C1C(=O)N1CCN(C)CC1 (centres undefined),6.34%
21,c1cnc(N2CCOCC3(CNCCO3)C2)nc1 (centres undefined),15.5%
22,Cc1ccc(-c2cn(C3CCN(C(=O)[C@H]4CCCO4)CC3)nn2)cc1,-5.5%
